Assay results as given in paper PMC4183613 (Journal of the American Chemical Society, 2014).

Columns and labels:
PRC2 [1] = target: T1, PRC2 (Homo sapiens, UniProt Q15910); assay: PRC2 inhibition, scintillation methyltransferase assay with H3; format: biochemical; conditions: peptide 50 μM; substrate peptide 20 μM; 3H-SAM scintillation assay
PRC2 [2] = target: T1, PRC2; format: biochemical; conditions: mononucleosome substrates; Figure 2C
[3] = target: polycomb repressor complex 2 (PRC2) (human (purified from HeLa cells)) (UniProt Q15910)
[4] = target: polycomb repressor complex 2 (PRC2) (human (purified from HeLa cells)) (UniProt Q15910); assay: methyltransferase inhibition kinetics
[5] = target: polycomb repressor complex 2 (PRC2) (human (purified from HeLa cells)) (UniProt Q15910); remark: listed apart in the source

T1 sequence (Q15910 whole entry): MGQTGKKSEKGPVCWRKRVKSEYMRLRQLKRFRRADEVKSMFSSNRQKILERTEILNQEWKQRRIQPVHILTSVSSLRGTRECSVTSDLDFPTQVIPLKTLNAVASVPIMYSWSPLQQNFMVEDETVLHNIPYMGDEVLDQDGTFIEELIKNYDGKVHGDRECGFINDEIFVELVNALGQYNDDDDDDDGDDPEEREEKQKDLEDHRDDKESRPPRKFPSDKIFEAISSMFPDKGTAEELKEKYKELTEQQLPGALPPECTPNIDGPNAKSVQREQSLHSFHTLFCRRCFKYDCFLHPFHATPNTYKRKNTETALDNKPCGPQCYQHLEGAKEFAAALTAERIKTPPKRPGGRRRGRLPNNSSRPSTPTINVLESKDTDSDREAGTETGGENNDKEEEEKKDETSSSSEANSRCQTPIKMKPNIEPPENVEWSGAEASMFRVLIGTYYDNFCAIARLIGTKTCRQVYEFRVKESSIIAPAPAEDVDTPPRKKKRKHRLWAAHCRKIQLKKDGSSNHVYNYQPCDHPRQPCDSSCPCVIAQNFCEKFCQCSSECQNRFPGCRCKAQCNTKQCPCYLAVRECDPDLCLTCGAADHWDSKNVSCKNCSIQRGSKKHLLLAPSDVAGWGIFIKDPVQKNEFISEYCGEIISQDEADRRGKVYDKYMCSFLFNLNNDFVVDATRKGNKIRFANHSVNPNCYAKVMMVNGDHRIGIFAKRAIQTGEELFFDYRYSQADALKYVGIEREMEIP
T1 sequence (O75530 whole entry partner): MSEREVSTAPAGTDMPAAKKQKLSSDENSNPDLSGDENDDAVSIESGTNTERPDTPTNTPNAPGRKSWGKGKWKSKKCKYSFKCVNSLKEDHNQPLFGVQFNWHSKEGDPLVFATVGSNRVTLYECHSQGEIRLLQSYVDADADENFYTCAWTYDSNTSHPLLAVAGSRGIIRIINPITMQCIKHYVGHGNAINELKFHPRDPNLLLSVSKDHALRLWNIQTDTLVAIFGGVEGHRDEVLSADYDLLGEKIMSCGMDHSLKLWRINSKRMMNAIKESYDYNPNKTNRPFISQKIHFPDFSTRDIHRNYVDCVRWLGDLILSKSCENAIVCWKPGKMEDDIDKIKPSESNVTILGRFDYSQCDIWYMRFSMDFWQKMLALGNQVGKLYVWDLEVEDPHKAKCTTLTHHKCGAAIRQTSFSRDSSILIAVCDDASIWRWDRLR
T1 sequence (Q15022 whole entry partner): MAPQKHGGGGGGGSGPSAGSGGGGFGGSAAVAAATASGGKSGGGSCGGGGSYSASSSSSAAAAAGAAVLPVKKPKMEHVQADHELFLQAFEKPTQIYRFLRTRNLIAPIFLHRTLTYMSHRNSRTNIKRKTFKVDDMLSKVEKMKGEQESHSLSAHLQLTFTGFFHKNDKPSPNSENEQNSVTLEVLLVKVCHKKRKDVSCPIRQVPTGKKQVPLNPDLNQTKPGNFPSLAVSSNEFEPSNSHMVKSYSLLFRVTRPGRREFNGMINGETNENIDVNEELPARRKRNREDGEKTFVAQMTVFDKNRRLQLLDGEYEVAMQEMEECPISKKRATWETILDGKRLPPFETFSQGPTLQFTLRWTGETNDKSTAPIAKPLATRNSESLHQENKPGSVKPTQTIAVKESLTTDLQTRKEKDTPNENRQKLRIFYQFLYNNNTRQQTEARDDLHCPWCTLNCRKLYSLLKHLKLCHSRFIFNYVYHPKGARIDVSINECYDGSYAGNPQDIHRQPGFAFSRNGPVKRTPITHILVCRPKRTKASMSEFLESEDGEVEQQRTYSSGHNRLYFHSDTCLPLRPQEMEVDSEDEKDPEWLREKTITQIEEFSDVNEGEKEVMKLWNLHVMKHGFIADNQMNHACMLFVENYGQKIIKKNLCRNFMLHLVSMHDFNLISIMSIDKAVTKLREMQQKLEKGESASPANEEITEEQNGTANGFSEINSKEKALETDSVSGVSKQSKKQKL
T1 sequence (Q09028 whole entry partner): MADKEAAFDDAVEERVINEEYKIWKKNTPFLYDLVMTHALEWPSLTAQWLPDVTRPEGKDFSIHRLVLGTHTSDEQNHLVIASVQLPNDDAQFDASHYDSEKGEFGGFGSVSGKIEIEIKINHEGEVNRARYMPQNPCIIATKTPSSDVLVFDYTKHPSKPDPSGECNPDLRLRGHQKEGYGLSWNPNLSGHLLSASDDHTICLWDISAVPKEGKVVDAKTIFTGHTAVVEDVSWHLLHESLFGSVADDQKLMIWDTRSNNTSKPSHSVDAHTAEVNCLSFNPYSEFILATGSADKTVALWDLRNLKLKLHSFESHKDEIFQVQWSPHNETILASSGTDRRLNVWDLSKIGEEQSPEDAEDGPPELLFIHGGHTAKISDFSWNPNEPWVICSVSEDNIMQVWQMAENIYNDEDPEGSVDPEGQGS

Substance | inhibition of PRC2 methyltransferase activity, in words (PRC2 [1]) | also measured
KAARXSAPSTGG [compound 8] | did not provide measurable inhibition | –
H3 1-10-GGG-H3 21-37 [compound 39] | – | inhibition by bitopic constructs, in words (PRC2 [2]): outperformed longer linkers
KAARXSAPSTGG [compound 3] | complete inhibition | –
KAARXSAPSTGG [compound 5] | modest loss in activity | –
KAARXSAPSTGG [compound 7] | did not provide measurable inhibition | –
H3.3(23-34) peptide 18 (trifluoro-methionine at residue 27) | – | IC50 of inhibition of PRC2 methyltransferase activity (Figure S2A) [3]: 11000 nM
H3K27M mutant mononucleosome (from UniProt P84243 1-136) (complex) | – | Ki [4]: 2.1 nM; IC50 of inhibition of PRC2 methylation of mononucleosome substrates [5]: 2.6 nM
KAARXSAPSTGG [compound 4] | did not provide measurable inhibition | –
KAARXSAPSTGG [compound 17] | abolished inhibition | –
KAARXSAPSTGG [compound 16] | modest loss of inhibition | –
